According to US8796292B2, “Selective antibacterials for clostridium difficile infections” (GLSynthesis Inc., priority 2009, dated 2014):
Converted amounts (≈) assume the structure as drawn. Where two headings read alike, the source gives them in different places.

Tests used:
Test in all cases: agar dilution MIC assay of anaerobic bacteria
E. lentum = type: cell-based, Eubacterium lentum
In short: (§1)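 Frozen isolates were subcultured anaerobically on Supplemented Brucella Agar, then inoculated onto manually prepared drug-supplemented agar plates. These were incubated 48 hours at 35° C. under 5% hydrogen, 5% carbon dioxide and 90% nitrogen, and MIC was recorded in μg/ml.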

L. casei = type: cell-based, Lactobacillus casei; conditions: Lacticaseibacillus casei
In short: as §1

Bi. longum = type: cell-based, Bifidobacterium longum
In short: as §1

C. difficile = type: cell-based, Clostridium difficile; conditions: Clostridioides difficile, read-out: MIC
In short: as §1

L. acidophilus = type: cell-based; conditions: Lactobacillus acidophilus
In short: as §1

Ba. fragilis = type: cell-based; conditions: Bacteroides fragilis
In short: as §1

Bi. brevi = type: cell-based, Bifidobacterium brevi
In short: as §1

In the case of `Cc1ncc([N+](=O)[O-])n1CCO` [metronidazole, reference compound], the MIC (E. lentum; Eggerthella lenta, E. lentum, Micromyx Number 1274, Table 1, read-out: MIC) is reported as 0.5 µg/mL (≈ 2.92 µM), the MIC (E. lentum; Eu. Lentum, Strain no. 1274 (ATCC strain), Table 3) is reported as 0.5 µg/mL (≈ 2.92 µM) and the MIC (L. casei; Micromyx Number 1722, Table 1) is reported as greater than 16 µg/mL. The MIC (L. casei; Strain no. 1722 (ATCC strain), Table 3) was greater than 32 µg/mL, the MIC (Bi. longum; Bi. Longum, Strain no. 3968 (ATCC strain), Table 3) was 4 µg/mL (≈ 23.4 µM) and the MIC (Bi. longum; Bifidobacterium longum, Bi. longum, Micromyx Number 3968, Table 1, read-out: MIC) was 4 µg/mL (≈ 23.4 µM). It also gave an MIC (C. difficile; C. diff. Strain no. 18285, Table 4) of 2 µg/mL (≈ 11.7 µM), an MIC (C. difficile; C. diff. Strain no. 19265, Table 4) of 0.5 µg/mL (≈ 2.92 µM) and an MIC (C. difficile; C. diff. Strain no. 19273, Table 4) of 0.25 µg/mL (≈ 1.46 µM). It also gave an MIC (C. difficile; C. diff. Strain no. 19281, Table 4) of 0.5 µg/mL (≈ 2.92 µM), an MIC (C. difficile; C. diff. Strain no. 19291, Table 4) of 0.5 µg/mL (≈ 2.92 µM) and an MIC (C. difficile; C. diff. Strain no. 19369, Table 4) of 0.5 µg/mL (≈ 2.92 µM). The MIC (C. difficile; C. diff. Strain no. 19382, Table 4) was 0.5 µg/mL (≈ 2.92 µM), the MIC (C. difficile; C. diff. Strain no. 19540, Table 4) was 4 µg/mL (≈ 23.4 µM) and the MIC (C. difficile; C. diff. Strain no. 19580, Table 4) was 2 µg/mL (≈ 11.7 µM). The MIC (C. difficile; C. diff. Strain no. 19680, Table 4) was 4 µg/mL (≈ 23.4 µM), the MIC (C. difficile; C. diff. Strain no. 19681, Table 4) was 1 µg/mL (≈ 5.84 µM) and the MIC (C. difficile; C. diff. Strain no. 19683, Table 4) was 2 µg/mL (≈ 11.7 µM). It also gave an MIC (C. difficile; C. diff. Strain no. 19687, Table 4) of 4 µg/mL (≈ 23.4 µM), an MIC (C. difficile; C. diff. Strain no. 20066, Table 4) of 4 µg/mL (≈ 23.4 µM) and an MIC (C. difficile; C. diff. Strain no. 20152, Table 4) of 1 µg/mL (≈ 5.84 µM). For the same compound, the MIC (C. difficile; C. diff. Strain no. 20307, Table 4) was 0.5 µg/mL (≈ 2.92 µM), the MIC (C. difficile; C. diff. Strain no. 20494, Table 4) was 1 µg/mL (≈ 5.84 µM) and the MIC (C. difficile; C. diff. Strain no. 20680, Table 4) was 4 µg/mL (≈ 23.4 µM). For the same compound, the MIC (C. difficile; C. diff. Strain no. 20934, Table 4) was 1 µg/mL (≈ 5.84 µM), the MIC (C. difficile; C. diff. Strain no. 21099, Table 4) was 2 µg/mL (≈ 11.7 µM) and the MIC (C. difficile; C. diff., Micromyx Number 3579, Table 2) was 0.5 µg/mL (≈ 2.92 µM). It also gave an MIC (C. difficile; C. diff., Micromyx Number 3580, Table 2) of 0.5 µg/mL (≈ 2.92 µM), an MIC (C. difficile; C. diff., Micromyx Number 3581, Table 2) of 0.5 µg/mL (≈ 2.92 µM) and an MIC (C. difficile; C. diff., Micromyx Number 3582 (ATCC strain), Table 2) of 0.5 µg/mL (≈ 2.92 µM). It also gave an MIC (C. difficile; C. diff., Strain no. 3580, Table 3) of 1 µg/mL (≈ 5.84 µM), an MIC (C. difficile; C. diff., Strain no. 3581, Table 3) of 1 µg/mL (≈ 5.84 µM) and an MIC (C. difficile; C. diff., Strain no. 3582, Table 3) of 0.5 µg/mL (≈ 2.92 µM). For the same compound, the MIC (C. difficile; C. diff., Strain no. 3584, Table 3) was 0.5 µg/mL (≈ 2.92 µM), the MIC (C. difficile; C. diff., Strain no. 3585, Table 3) was 1 µg/mL (≈ 5.84 µM) and the MIC (C. difficile; C. diff., Strain no. 3586, Table 3) was 0.12 µg/mL (≈ 0.701 µM). It also gave an MIC (C. difficile; C. diff., Strain no. 3587, Table 3) of 1 µg/mL (≈ 5.84 µM), an MIC (C. difficile; C. diff., Strain no. 3588, Table 3) of 0.5 µg/mL (≈ 2.92 µM) and an MIC (C. difficile; C. diff., Strain no. 3589, Table 3) of 2 µg/mL (≈ 11.7 µM). It also gave an MIC (C. difficile; C. diff., Strain no. 4381 (ATCC strain), Table 3) of 0.5 µg/mL (≈ 2.92 µM), an MIC (C. difficile; C. difficile, Micromyx Number 1209, Table 1) of 0.5 µg/mL (≈ 2.92 µM) and an MIC (C. difficile; C. difficile, Micromyx Number 3579, Table 1) of 0.25 µg/mL (≈ 1.46 µM). It also gave an MIC (C. difficile; C. difficile, Micromyx Number 3580, Table 1) of 0.5 µg/mL (≈ 2.92 µM), an MIC (C. difficile; C. difficile, Micromyx Number 3581, Table 1) of 1 µg/mL (≈ 5.84 µM) and an MIC (C. difficile; C. difficile, Micromyx Number 3582, Table 1) of 0.25 µg/mL (≈ 1.46 µM). The MIC (C. difficile; C. difficile, Micromyx Number 3584, Table 1) was 0.5 µg/mL (≈ 2.92 µM), the MIC (C. difficile; C. difficile, Micromyx Number 3585, Table 1) was 0.5 µg/mL (≈ 2.92 µM) and the MIC (C. difficile; C. difficile, Micromyx Number 3586, Table 1) was 0.5 µg/mL (≈ 2.92 µM). For the same compound, the MIC (C. difficile; C. difficile, Micromyx Number 3587, Table 1) was 1 µg/mL (≈ 5.84 µM), the MIC (C. difficile; C. difficile, Micromyx Number 3588, Table 1) was 0.5 µg/mL (≈ 2.92 µM) and the MIC (C. difficile; C. difficile, Micromyx Number 3589, Table 1) was 1 µg/mL (≈ 5.84 µM). It also gave an MIC (C. difficile; C. difficile, Micromyx Number 3590, Table 1) of 0.5 µg/mL (≈ 2.92 µM), an MIC (C. difficile; C. difficile, Micromyx Number 3591, Table 1) of 0.5 µg/mL (≈ 2.92 µM) and an MIC (C. difficile; C. difficile, Micromyx Number 3593, Table 1) of 0.5 µg/mL (≈ 2.92 µM). It also gave an MIC (C. difficile; C. difficile, Micromyx Number 3594, Table 1) of 1 µg/mL (≈ 5.84 µM), an MIC (C. difficile; C. difficile, Micromyx Number 3595, Table 1) of 1 µg/mL (≈ 5.84 µM) and an MIC (C. difficile; C. difficile, Micromyx Number 4381 (ATCC strain), Table 1) of 0.5 µg/mL (≈ 2.92 µM). The MIC (L. acidophilus; Micromyx Number 0681, Table 1) was greater than 16 µg/mL, the MIC (L. acidophilus; Strain no. 0681, Table 3) was greater than 32 µg/mL and the MIC (Ba. fragilis; B. fragilis, Micromyx Number 0123 (ATCC strain), Table 2) was 0.5 µg/mL (≈ 2.92 µM). It also gave an MIC (Ba. fragilis; B. fragilis, Strain no. 0123 (ATCC strain), Gram-negative (control), Table 3) of 0.5 µg/mL (≈ 2.92 µM), an MIC (Ba. fragilis; Ba. fragilis, Micromyx Number 0123 (ATCC strain), Gram negative, Table 1) of 1 µg/mL (≈ 5.84 µM) and an MIC (Bi. brevi; Bifidobacterium breve, Bi. Breve, Strain no. 3967 (ATCC strain), Table 3) of 4 µg/mL (≈ 23.4 µM). For the same compound, the MIC (Bi. brevi; Bifidobacterium, Bi. brevi, Micromyx Number 3967, Table 1) was greater than 16 µg/mL.
